Values of other authors in patent US20090105222A1, “PREVENTION AND TREATMENT OF […] DISORDERS, INCLUDING STRESS-RELATED DISORDERS” (Cypress Bioscience, Inc., priority 2002, published 2009).

Biological target: NMDA receptor
Conditions: reported in literature (Shuto et al.); read-out: IC50 value, NMDA receptor antagonistic properties

CCN(CC)C(=O)C1(c2ccccc2)CC1CN (stereo not shown) [milnacipran]
IC50: ~6.3 µM
